# Laboratory results: paper PMC8512853, “Synthesis, Bioactivity, Pharmacokinetic and Biomimetic Properties of Multi-Substituted Coumarin Derivatives” (Molecules, 2021)
# How the values were obtained:
# A549 cells = experiment: MTT cytotoxicity assay, A549; assay type: cell-based, human; details: 24 h; for cytotoxicity at 100 µM: Homo sapiens, A549, 100 μΜ, read-out: Cell Toxicity A549 % (100 μΜ)
# Method: (§1) Furthermore, the coumarin compounds synthesized in this study were also evaluated for their cytotoxicity against A549 (adenocarcinomic human alveolar basal epithelial cells) and A375 (human melanoma) cell lines.
# (§2) This protocol was used for the evaluation of cell viability and all the cell lines. It must be noted that this assay describes the count of cells that remain alive after the treatment. For the experimental procedure a standard solution of MTT 1mg/mL in PBS was prepared which after filtration ([…] filter (Millipore, Carrigtwohill, Ireland)) was stored in the dark (4–8 °C) until use. In a 96-well plate, HaCaT, A549 and A375 cells were seeded in a number of 30 × 10^4 cells/well for each evaluation series respectively. The cells were incubated (37 °C, 5% CO2) for 24 h, followed by the addition of the tested analogues (100 μM, diluted in DMEM) and another 24-h incubation. Next, appropriate amount of MTT was added in the tested wells and the plate returned to the incubator for the next 4 h for the formation of the formazan crystals. The formazan crystals were then redissolved by adding DMSO (100 μL) and stirring lightly for 40 min, after which the absorbance was measured in a plate reader at 540 nm with a reference absorbance of 720 nm.
# (§3) All samples were tested in triplicate, against a control (only cells), blank (no cells), and positive control (100 μM standard silibinin solution was used as a “cell-killing” standard).
# [1] = Hydroxyl (HO•) free radical scavenging assay (competition with DMSO)
# From the text: The hydroxyl (HO^•) free radical is considered as the most toxic and reactive radical among the ROS, leading to cellular or protein damage, membrane destruction, and even to cellular death when encountered in excess concentration. In this context, the evaluation of the hydroxyl radical scavenging activity of the coumarin analogues was essential. Hydroxyl radicals are mainly produced by the Haber–Weiss reaction in the presence of iron or copper ions. In this protocol, iron-EDTA solution, which catalyzes the autooxidation of ascorbic acid, was used as the hydroxyl radical generation system. In general, the hydroxyl radicals formed oxidize the DMSO to form formaldehyde. The reaction involves the initial interaction of DMSO with the hydroxyl radicals to give methyl radicals, with the final product being formaldehyde, which is determined by Nash method. The intensity of the yellow solution formed was measured at 412 nm against a reagent blank.
# For the evaluation of hydroxyl radical scavenging ability, the protocol described by Kontogiorgis et al. was used. In short, each sample was tested in quadruplicate (A, B, C, D). For A and B, 10 μL of coumarin analogs diluted in DMSO (100 mM) were added; for C and D were the respective blanks. Standards (containing DMSO solution) and blanks were all prepared in a similar manner; to the latter an equal amount (10 µL) of solvent was added instead of the tested analogues. According to the protocol described by Klein et al., standard solutions of EDTA, FeCl3, ascorbic acid, and buffer solution (pH 7.4) were also added to each of the tested mixtures. All mixtures were incubated at 37 °C for 30 min, and then 1 mL of Nash solution and […] of CCl3COOH solution were added. After a 10min incubation at 60 °C to allow the formation of the yellow mixture, the absorbance was measured at […].
# The results were calculated as performance percentages in relation to the respective standards and blanks according to the following Equation (4):(4) % Scavenging ability= Mean OD(A+B)−Mean OD(C+D)/Mean OD(A+B)
# HaCaT cells = experiment: DCF-DA assay (intracellular ROS after H2O2); assay type: cell-based, human; details: H2O2 treatment, 24 h; for inhibition at 100 µM: Homo sapiens, 100 μΜ, read-out: DCFDA Assay, % (100 μΜ)
# From the text: In the setting of evaluating bioactive compounds in terms of antioxidant capacity in various cell lines, DCF-DA is the most widely used assay for the detection of intracellular H2O2 and oxidative stress. DCF-DA is cell-permeable and is hydrolyzed intracellularly to the DCFH carboxylate anion, which is retained in the cell.
# DCFDA is a fluorescent dye that measures the activity of hydroxyl radicals, peroxyl radicals, and other reactive oxygen species (ROS) within the cell. The DCFDA analysis protocol is based on the diffusion of DCFDA into the cell. It is then deacetylated from cellular esterases to a non-fluorescent compound, which is later oxidized by ROS to 2’,7’ -dichlorofluoroscein (DCF). The produced compound (DCF) is fluorescent and is detected by fluorescence spectroscopy at 485/535 nm (excitation/emission).
# For the experimental procedure a standard solution of DCF-DA (20mM) in DMSO was prepared which was stored in the dark (−20 °C) until use. In a 96-well plate, cells were cultured to a density of 3 × 10^4 cells/well.
# The cells remained in the incubator (37 °C, 5% CO2) for 24 h, after which an appropriate amount of H2O2 (2 mM) was added and the dish was returned for incubation for the next 2 h. This was followed by the addition of the test substances (100μM) and incubation for 24 h. At the end of the treatment time, all wells were washed with PBS, and DCF-DA solution (working concentration: 10 μM) (in 200 μL of nutrient) was added and incubated for 40 min.
# After incubation, the medium with the DCF-DA was removed and replaced with FBS-free DMEM. The measurement of the […] was made immediately after that in a plate reader at 495/530 nm (excitation/emission).
# All samples were tested in triplicates, against a control (without effects), blank (without cells), and positive control (standard 100 μM Ascorbic acid solution was used).
# The percentage of antioxidant capacity (%) was calculated according to the following Equation (6) evaluating the presence of ROS [42]:(6) % AI=( OD Sample 530 nm−Blank)−(OD Control 530 nm−Blank)/(OD Control 530 nm−Blank) × 100
# A375 cells = experiment: MTT cytotoxicity assay, A375; assay type: cell-based, human; details: Homo sapiens, A-375, 24 h, A375, 100 μΜ, read-out: Cell Toxicity A375 % (100 μΜ)
# Method: as §1, §2, §3
# [2] = ABTS radical scavenging assay; details: 6 min
# Method: The ABTS radical cation scavenging assay is a decolorization assay frequently used as an antioxidant activity estimation protocol. […] The absorbance is measured at 734 nm and the antioxidant capacity is compared to a standard antioxidant solution, such as ascorbic acid.
# For the evaluation of antioxidant activity, the scavenging capacities of all samples were measured via the ABTS assay, as previously described by Kontogiorgis et al. with some modifications. Briefly, an ethanolic standard ABTS solution (7 mM) was prepared by the addition of ABTS salt and potassium persulfate. […] Each sample was diluted in DMSO and tested in triplicate. The tested mixture contained 10–20 µL of sample and 990–980 µL of the ABTS solution, for a total volume of 1 ml. Blank samples contained equal amounts of DMSO instead of the coumarin analogues, and ascorbic acid was used as a reference sample for the final evaluation of the ABTS scavenging capacity. All mixtures were stored at room temperature to allow decolorization and measured after 6 min. The percentage reduction of the ABTS radical was evaluated according to the following Equation (3):(3) % Reduction=Control OD (mean)−Sample OD (mean)/Control OD (mean)×100
SMILES,Cell Toxicity A549 % (100 μΜ) (A549 cells),HO^• % (100 μΜ) scavenging [1] [%],inhibition at 100 µM (HaCaT cells) [%],cytotoxicity at 100 µM (A375 cells) [%],ABTS^•+ % (100 μΜ) [2],cytotoxicity at 100 µM (A549 cells) [%],"DCFDA Assay, % (100 μΜ) (HaCaT cells)"
"CC(=O)Oc1cccc2oc(=O)c(-c3ccccc3Cl)c(C)c12 [Compound 3a, 5-acetyloxy-3-(2-chlorophenyl)-4-methyl-chromen-2-one]",no,97.0,33.8,38.7,no,–,–
"CC(=O)Oc1cccc2oc(=O)c(-c3cccc(Cl)c3)c(C)c12 [Compound 3b, 5-acetyloxy-3-(3-chlorophenyl)-4-methyl-chromen-2-one]",–,96.4,56.9,> 60,1.9%,24.6,–
"CC(=O)Oc1cccc2oc(=O)c(-c3ccc(Cl)cc3)c(C)c12 [Compound 3c, 5-acetyloxy-3-(4-chlorophenyl)-4-methyl-chromen-2-one]",no,30.8,–,24.8,15.0%,–,no
"CC(=O)Oc1cccc2oc(=O)c(-c3ccccc3F)c(C)c12 [Compound 3d, 5-acetyloxy-3-(2-fluorophenyl)-4-methyl-chromen-2-one]",–,100,22.4,28.5,no,7.5,–
"CC(=O)Oc1cccc2oc(=O)c(-c3cccc(F)c3)c(C)c12 [Compound 3e, 5-acetyloxy-3-(3-fluorophenyl)-4-methyl-chromen-2-one]",–,85.2,–,> 60,2.0%,8.9,no
"CC(=O)Oc1cccc2oc(=O)c(-c3ccc(F)cc3)c(C)c12 [Compound 3f, 5-acetyloxy-3-(4-fluorophenyl)-4-methyl-chromen-2-one]",no,71.6,100,35.8,no,–,–
"CC(=O)Oc1cccc2oc(=O)c(-c3cccc(Br)c3)c(C)c12 [Compound 3g, 5-acetyloxy-3-(3-bromophenyl)-4-methyl-chromen-2-one]",no,42.0,45.5,7.02,2.8%,–,–
"CC(=O)Oc1ccc(-c2c(C)c3ccccc3oc2=O)cc1 [Compound 3h, 3-(4-acetyloxyphenyl)-4-methyl-chromen-2-one]",no,100,–,43.2,no,–,no
"CC(=O)Oc1ccc(-c2c(C)c3cc(Br)ccc3oc2=O)cc1 [Compound 3i, 3-(4-acetyloxyphenyl)-6-bromo-4-methyl-chromen-2-one]",no,64.5,80.9,50 to 60,no,–,–
"CC(=O)Oc1ccc(-c2c(C)c3cc(Cl)ccc3oc2=O)cc1 [Compound 3j, 3-(4-acetyloxyphenyl)-6-chloro-4-methyl-chromen-2-one]",no,26.6,9,50 to 60,no,–,–
"CC(=O)Oc1ccc(-c2c(C)c3cc(Br)cc(Br)c3oc2=O)cc1 [Compound 3k, 3-(4-acetyloxyphenyl)-6,8-dibromo-4-methyl-chromen-2-one]",no,92.9,–,28.8,no,–,no
"CC(=O)Oc1ccc(-c2c(C)c3ccccc3oc2=O)cc1OC(C)=O [Compound 3l, 3-(4,5-diacetyloxyphenyl)-4-methyl-chromen-2-one]",no,10.7,–,40.4,2.8%,–,no
"CC(=O)Oc1ccc(-c2c(C)c3cc(Br)ccc3oc2=O)cc1OC(C)=O [Compound 3m, 3-(4,5-diacetyloxyphenyl)-6-bromo-4-methyl-chromen-2-one]",no,46.7,–,33.3,no,–,no
"CC(=O)Oc1ccc(-c2c(C)c3cc(Cl)ccc3oc2=O)cc1OC(C)=O [Compound 3n, 3-(4,5-diacetyloxyphenyl)-6-chloro-4-methyl-chromen-2-one]",no,65.7,–,11.5,no,–,no
"CC(=O)Oc1ccc(-c2c(C)c3cc(Br)cc(Br)c3oc2=O)cc1OC(C)=O [Compound 3o, 3-(4,5-diacetyloxyphenyl)-6,8-dibromo-4-methyl-chromen-2-one]",no,52.1,25.7,45.6,no,–,–
"Cc1c(-c2ccccc2Cl)c(=O)oc2cccc(O)c12 [Compound 4a, 3-(2-chlorophenyl)-5-hydroxy-4-methyl-chromen-2-one]",–,37.3,0,33.1,56.5%,64.7,–
